The values that follow come from BindingDB's records for PubMed 11303056 (Kissei Pharmaceutical, 2001).

The term Ki denotes the equilibrium dissociation constant of an inhibitor or competing ligand from its target. Higher therefore signals lower affinity.

Test [1] addresses Beta-3 adrenergic receptor (Homo sapiens, UniProt P13945).
Test [2] addresses Beta-2 adrenergic receptor (Homo sapiens, UniProt P07550).

Sequence of Beta-2 adrenergic receptor (P07550 whole entry): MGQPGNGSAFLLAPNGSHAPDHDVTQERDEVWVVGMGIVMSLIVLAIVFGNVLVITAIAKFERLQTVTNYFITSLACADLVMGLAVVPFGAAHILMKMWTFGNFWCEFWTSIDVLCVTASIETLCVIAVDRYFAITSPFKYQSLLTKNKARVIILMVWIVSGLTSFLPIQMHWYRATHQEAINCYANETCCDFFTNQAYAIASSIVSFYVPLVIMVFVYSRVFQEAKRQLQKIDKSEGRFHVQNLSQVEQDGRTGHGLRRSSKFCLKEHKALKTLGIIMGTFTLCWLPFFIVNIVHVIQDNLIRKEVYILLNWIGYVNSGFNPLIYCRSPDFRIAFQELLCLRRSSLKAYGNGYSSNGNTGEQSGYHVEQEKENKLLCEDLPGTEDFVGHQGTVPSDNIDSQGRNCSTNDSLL
Sequence of Beta-3 adrenergic receptor (P13945 whole entry): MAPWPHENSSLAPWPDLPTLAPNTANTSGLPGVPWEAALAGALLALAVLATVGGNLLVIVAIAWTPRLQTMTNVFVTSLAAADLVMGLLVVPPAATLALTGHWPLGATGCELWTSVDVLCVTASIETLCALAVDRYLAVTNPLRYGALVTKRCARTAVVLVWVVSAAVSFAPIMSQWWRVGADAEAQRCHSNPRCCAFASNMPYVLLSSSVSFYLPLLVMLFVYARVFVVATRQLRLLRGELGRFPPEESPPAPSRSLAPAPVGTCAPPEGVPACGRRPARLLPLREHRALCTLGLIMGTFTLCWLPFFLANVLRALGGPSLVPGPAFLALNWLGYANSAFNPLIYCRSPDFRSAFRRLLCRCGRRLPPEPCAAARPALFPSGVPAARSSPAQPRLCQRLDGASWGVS

As for `CN(C)C(=O)COc1ccc2c(c1)C[C@@H](NC[C@H](O)c1ccc(O)c(CCO)c1)CC2` [KUR-1246], the results for the Ki in test [1] and in test [2] were greater than 10000 nM and 25.7 nM, respectively.
